Consider 21 compounds from patent US9422292B2, “Bromodomain inhibitors and uses thereof” (Constellation Pharmaceuticals, Inc., priority 2011, dated 2016).

One assay deals with T1, BRD4 (BD1) (Homo sapiens, UniProt O60885).
T1 construct: His; made in house
Briefly: BRD4 AlphaLisa binding assay. As to conditions: BRD4 (BD1) 30 nM, biotinylated H4-tetraacetyl peptide 200 nM; read-out: BRD4 AlphaLisa. The procedure:
A. IC50 Measurements for Inhibitors Using BRD4 AlphaLisa Binding Assay.
Specifically, in a 384 well ProxiPlate BRD4 (BD1) (30 nM final) was combined with peptide (200 nM final) in 40 mM HEPES (pH 7.0), 40 mM NaCl, 1 mM DTT, 0.01% (w/v) BSA, and 0.008% (w/v) Brij-35 either in the presence of DMSO (final 1.2% DMSO) or compound dilution series in DMSO. After 20 minute incubation at room temperature Alpha streptavidin donor beads and AlphaLisa anti-Flag acceptor beads were added to a final concentration of 10 ug/mL each. After three hours equilibration plates were read on an Envision instrument and IC50s calculated using a four parameter non-linear curve fit.
In general terms: Bead proximity is the source of the signal in Alpha formats.

Assay [1] has as its system IL-6 secretion in THP-1 cells. As to the kind of experiment: Cell-based IL-6 quantification assay (ELISA, Mesoscale) in LPS-treated THP-1 cells. Conditions: Homo sapiens, LPS 4 μg/mL, 16 h, ELISA value/CellTiter-Glo ratio. Here is the method:
C. Cell-Based IL-6 Quantification Assay (ELISA, Mesoscale Assay):
100,000 THP-1 cells were seeded in RPMI1640-10% FBS in 96-well plates. LPS (E. Coli Invitrogen) in RPMI−10% FBS at a final concentration of 4 μg/mL was added to the wells and the cells are then incubated in the presence of various concentrations of compounds for 16 h. Plates are spun ([…], 5 min), an aliquot of 25 uL supernatant is transferred in to an ELISA plate (Mesoscale technology, MSD) and the detection of IL-6 is performed using manufacturer's instructions. The amount of cells in each well is assessed using CellTiter-Glo® (Promega). The ratio of ELISA value/CellTiter-Glo value is used to calculate the percent of inhibition of IL-6 secretion.

In assay [2] the test system is MYC mRNA in MV4:11 (AML) cells. As to the kind of experiment: cMyc RNA quantification assay (QuantiGene) in MV4:11 cells. As to conditions: Homo sapiens, 4 h, QuantiGene 2.0. In kind it is cell-based. Here is the method: B. cMyc RNA Quantification Assay (QuantiGene® Assay):
MV4:11 (AML) cells were seeded in a 96-well plate and incubated in the presence of various concentrations of compounds for 4 h. Relative mRNA levels were quantitated by using QuantiGene 2.0 assay (Affymetrix) according to the manufacturer's recommendation. Signals were detected by using an Envision plate reader (Perkin-Elmer). Biological duplicates were averaged and normalized to vehicle (DMSO) control to calculate percent MYC mRNA levels.

In the case of `Cc1nnc2n1-c1ccc(-c3ccc(N)nc3)cc1N(c1ccc(Cl)cc1)C[C@@H]2C` [Compound 27, (S)-4H-[1,2,4]triazolo[4,3-a][1,5]benzodiazepine, 5,6-dihydro-1,4-dimethyl-8-(6-aminopyridin-3-yl)-6-(4-chloro-phenyl)], the IC50 lay in the range of 100 to 1000 nM on BRD4 (BD1), 100 to 1000 nM in assay [1] and 1000 to 10000 nM in assay [2].

On to `Cc1ccc(-c2ccc3c(c2)N(c2ccc(Cl)cc2)C[C@H](C)c2nnc(C)n2-3)cn1` [Compound 28, (S)-4H-[1,2,4]triazolo[4,3-a][1,5]benzodiazepine, 5,6-dihydro-1,4-dimethyl-8-(6-methylpyridin-3-yl)-6-(4-chloro-phenyl)], for which the IC50 (at BRD4 (BD1); in assay [1]; in assay [2]) was 1000 to 10000 nM each time.

As for `Cc1ccc(-c2ccc3c(c2)N(c2ccc(Cl)cc2)C[C@@H](C)c2nnc(C)n2-3)cn1` [Compound 29, (R)-4H-[1,2,4]triazolo[4,3-a][1,5]benzodiazepine, 5,6-dihydro-1,4-dimethyl-8-(6-methylpyridin-3-yl)-6-(4-chloro-phenyl)], the IC50 (at BRD4 (BD1); in assay [1]; in assay [2]) was under 100 nM throughout.

For the compound `Cc1nnc2n1-c1ccc(Br)cc1N(c1ccc(Cl)cc1)C[C@@H]2C` [Compound 37, (S)-4H-[1,2,4]triazolo[4,3-a][1,5]benzodiazepine, 5,6-dihydro-1,4-dimethyl-8-bromo-6-(4-chloro-phenyl)], the IC50 was 1000 to 10000 nM on BRD4 (BD1), over 1000 nM in assay [1] and 1000 to 10000 nM in assay [2].

`Cc1nnc2n1-c1ccc(Br)cc1N(c1ccc(Cl)cc1)C[C@H]2C` [Compound 38, (R)-4H-[1,2,4]triazolo[4,3-a][1,5]benzodiazepine,5,6-dihydro-1,4-dimethyl-8-bromo-6-(4-chloro-phenyl)]: the IC50 (at BRD4 (BD1); in assay [1]; in assay [2]) was 100 to 1000 nM throughout.

On to `Cc1nnc2n1-c1ccc(-c3cnc(N)nc3)cc1N(c1ccc(Cl)cc1)C[C@H]2C` [Compound 39, (R)-4H-[1,2,4]triazolo[4,3-a][1,5]benzodiazepine,5,6-dihydro-1,4-dimethyl-8-(2-aminopyrimidin-5-yl)-6-(4-chloro-phenyl)], for which the IC50 (on BRD4 (BD1); in assay [1]; in assay [2]) was under 100 nM throughout.

Consider `Cc1nnc2n1-c1ccc(C(N)=O)cc1N(c1ccc(Cl)cc1)C[C@H]2C` [Compound 41, 4-R-4H-[1,2,4]Triazolo[4,3-a][1,5]benzodiazepine,5,6-dihydro-1,4-dimethyl-8-carbamoyl-6-(4-chloro-phenyl)], for which the results for the IC50 (on BRD4 (BD1); in assay [1]; in assay [2]) were under 100 nM, 100 to 1000 nM and under 100 nM, respectively.

As for `Cc1nnc2n1-c1ccc(-c3cnn(C)c3)cc1N(c1ccc(Cl)cc1)C[C@@H]2C` [Compound 42, (S)-4H-[1,2,4]triazolo[4,3-a][1,5]benzodiazepine, 5,6-dihydro-1,4-dimethyl-8-(1-methyl-1H-pyrazol-4-yl)-6-(4-chloro-phenyl)], the IC50 was 100 to 1000 nM at BRD4 (BD1), over 1000 nM in assay [1] and 1000 to 10000 nM in assay [2].

As for `Cc1nnc2n1-c1ccc(-c3cnn(C)c3)cc1N(c1ccc(Cl)cc1)C[C@H]2C` [Compound 43, (R)-(4H-[1,2,4]triazolo[4,3-a][1,5]benzodiazepine,5,6-dihydro-1,4-dimethyl-8-(1-methyl-1H-pyrazol-4-yl)-6-(4-chloro-phenyl))], the IC50 (on BRD4 (BD1); in assay [1]; in assay [2]) was under 100 nM throughout.

`Cc1nnc2n1-c1ccc(-c3cnn(C)c3)cc1N(c1ccc(C#N)cc1)C[C@H]2C` [Compound 44, (R)-4H-[1,2,4]triazolo[4,3-a][1,5]benzodiazepine, 5,6-dihydro-1,4-dimethyl-8-(1-methyl-1H-pyrazol-4-yl)-6-(4-cyano-phenyl)]: the IC50 (on BRD4 (BD1); in assay [1]; in assay [2]) was under 100 nM throughout.

Regarding `Cc1nnc2n1-c1ccc(-c3cnn(CC(N)=O)c3)cc1N(c1ccc(Cl)cc1)C[C@H]2C` [Compound 46, 4H-[1,2,4]triazolo[4,3-a][1,5]benzodiazepine,5,6-dihydro-(4R)-1,4-dimethyl-8-(1-(2-amino-2-oxoethyl)-1H-pyrazol-4-yl)-6-(4-chloro-phenyl)], the IC50 on BRD4 (BD1) was under 100 nM; in assay [1] it was 100 to 1000 nM; in assay [2] it was 100 to 1000 nM.

For `Cc1nnc2n1-c1ccc(C(=O)NCCO)cc1N(c1ccc(Cl)cc1)C[C@H]2C` [Compound 47, 4-R-4H-[1,2,4]triazolo[4,3-a][1,5]benzodiazepine,5,6-dihydro-1,4-dimethyl-8-(2-hydroxyethylcarbamoyl)-6-(4-chloro-phenyl)], the IC50 (on BRD4 (BD1); in assay [1]; in assay [2]) was 100 to 1000 nM in each case.

Regarding `Cc1nnc2n1-c1ccc(-c3cnn(C)n3)cc1N(c1ccc(Cl)cc1)C[C@H]2C` [Compound 48, 4H-[1,2,4]triazolo[4,3-a][1,5]benzodiazepine, 5,6-dihydro-(4R)-1,4-dimethyl-8-(2-methyl-2H-1,2,3-triazole-4-yl)-6-(4-chloro-phenyl)], the IC50 (on BRD4 (BD1); in assay [1]; in assay [2]) was under 100 nM in each case.

On to `Cc1nnc(-c2ccc3c(c2)N(c2ccc(Cl)cc2)C[C@@H](C)c2nnc(C)n2-3)o1` [Compound 49, 4-R-4H-[1,2,4]triazolo[4,3-a][1,5]benzodiazepine,5,6-dihydro-1,4-dimethyl-8-(5-methyl-1,3,4-oxadiazol-2-yl)-6-(4-chloro-phenyl)], for which the IC50 (on BRD4 (BD1); in assay [1]; in assay [2]) was under 100 nM throughout.

Turning to `Cc1nc(-c2ccc3c(c2)N(c2ccc(Cl)cc2)C[C@@H](C)c2nnc(C)n2-3)no1` [Compound 50, 4-R-4H-[1,2,4]triazolo[4,3-a][1,5]benzodiazepine, 5,6-dihydro-1,4-dimethyl-8-(5-methyl-1,2,4-oxadiazol-3-yl)-6-(4-chloro-phenyl)], the IC50 was 100 to 1000 nM at BRD4 (BD1), under 100 nM in assay [1] and under 100 nM in assay [2].

Regarding `Cc1noc(-c2ccc3c(c2)N(c2ccc(Cl)cc2)C[C@@H](C)c2nnc(C)n2-3)n1` [Compound 51, 4-R-4H-[1,2,4]triazolo[4,3-a][1,5]benzodiazepine,5,6-dihydro-1,4-dimethyl-8-(3-methyl-1,2,4-oxadiazol-5-yl)-6-(4-chloro-phenyl)], the IC50 at BRD4 (BD1) was 100 to 1000 nM; in assay [1], under 100 nM; in assay [2], under 100 nM.

For `Cc1nnc2n1-c1ccc(-c3cnn(C)c3)cc1N(c1ccc(C#N)cn1)C[C@H]2C` [Compound 52, (R)-4H-[1,2,4]triazolo[4,3-a][1,5]benzodiazepine,5,6-dihydro-1,4-dimethyl-8-(1-methyl-1H-pyrazol-4-yl)-6-(5-cyanopyridin-2-yl)], the IC50 was under 100 nM on BRD4 (BD1), under 100 nM in assay [1] and 100 to 1000 nM in assay [2].

As for `Cc1nnc2n1-c1ccc(C(=O)N3CCCC3)cc1N(c1ccc(Cl)cc1)C[C@H]2C` [Compound 53, 4-R-4H-[1,2,4]triazolo[4,3-a][1,5]benzodiazepine,5,6-dihydro-1,4-dimethyl-8-(pyrrolidine-1-carbonyl)-6-(4-chloro-phenyl)], the values for the IC50 (at BRD4 (BD1); in assay [1]; in assay [2]) were 100 to 1000 nM, 100 to 1000 nM and 1000 to 10000 nM, respectively.

Take `Cc1nnc2n1-c1ccc(-n3cncn3)cc1N(c1ccc(Cl)cc1)C[C@H]2C` [Compound 54, (R)-6-(4-chlorophenyl)-1,4-dimethyl-8-(1H-1,2,4-triazol-1-yl)-5,6-dihydro-4H-benzo[b][1,2,4]triazolo[4,3-d][1,4]diazepine]: the IC50 (on BRD4 (BD1); in assay [1]; in assay [2]) was under 100 nM in each case.

Turning to `Cc1nnc2n1-c1ccc(-c3cnc(N)cn3)cc1N(c1ccc(Cl)cc1)C[C@H]2C` [Compound 55, 4-R-4H-[1,2,4]triazolo[4,3-a][1,5]benzodiazepine,5,6-dihydro-1,4-dimethyl-8-(5-aminopyrazin-2-yl)-6-(4-chloro-phenyl)], the IC50 (on BRD4 (BD1); in assay [1]; in assay [2]) was under 100 nM in each case.

For the compound `Cc1nnc2n1-c1ccc(-c3cnn(C)c3)cc1N(c1ccc(C#N)cn1)C[C@@H]2C` [Compound 58, (S)-4H-[1,2,4]triazolo[4,3-a][1,5]benzodiazepine, 5,6-dihydro-1,4-dimethyl-8-(1-methyl-1H-pyrazol-4-yl)-6-(5-cyanopyridin-2-yl)], the IC50 (at BRD4 (BD1); in assay [1]; in assay [2]) was 1000 to 10000 nM throughout.
